Source: patent publication US11351185B2, “Use of isovalerylspiramycins as anti-cancer agents to inhibit metastasis” (priority 2020, dated 2022)
“Also recorded” adds a separate entry of the source.

Key:
LN229-luc tumors = experiment: Intracranial LN229-luc glioblastoma xenograft mouse model; assay type: in vivo, NSG mice
From the text: The inventors first assessed ISP I's anti-tumor activity in an intracranial mouse model (FIG. 11A). NSG mice were inoculated with 1×10^5 LN229-luc cells in the right-frontal cortex. After 7 days, intracranial tumor growth was confirmed via noninvasive in vivo bioluminescence imaging and mice were randomized into ISP I or DMSO (control) treatment groups.
Mice experiments were approved by the National Institute of Neurological Disorders and Stroke (NINDS) and National Cancer Institute (NCI) Animal Use and Care Committees. For intracranial xenografts establishment, NOD-Prkdc^scidII2rg^tmiWjl (NSG) mice (6-8 weeks old from the NCI-Frederick animal facility) were inoculated intracranially with 100,000 LN229-luc cells suspended in 2 μL Hank's Balanced Salt Solution (HBSS), a product of Crystalgen (Commack, N.Y. USA). After one week, luciferin signals were detected to confirm the survival of tumor cells in mice. The mice were assigned to the indicated groups according to the signal intensity, in order to keep the baseline balanced. ISP I was injected intraperitoneally daily at a dose of 66 mg/kg body weight for 24 days. The mice in control group were injected with the same volume of corn oil or saline. The viability of tumors was monitored every four days. […]

LN229 and U251 cells = experiment: Cell-cycle analysis by flow cytometry (EdU and DAPI), glioblastoma cells; assay type: cell-based
Description: To assess the cytotoxicity of ISPs I, II and III, five glioblastoma cell lines, T98G, U118, A172, LN229 and U251, were treated with serial doses of each ISP, respectively, for 48 hours. Cell viability of these cell lines were evaluated by CCK8 assay, and the 50% inhibitory concentration (IC50) was calculated (FIG. 2A, B and FIG. 3). […] Cell distribution in each phase of the cell cycle was assessed in LN229 and U251 cells by flow cytometry, followed by EdU and DAPI staining.
(§1) For monitoring cell-cycle arrest of ISP I-treated cells, Click-iT EdU Flow Cytometry Assay Kits were used, a product of ThermoFisher Scientific. Cells were co-cultured with EdU at a concentration of 10 μM for 1 hour. After fixation and permeabilization, EdU-positive cells were labeled with Alexa Fluor 647 fluorescein. DAPI also was used for measuring total DNA content to identify differences in cell cycle phases. Data were collected by means of a BD LSRFortessa flow cytometer using FlowJo software. Cells that are positive with EdU and DAPI were in S-Phase of the cell cycle.

786-O and RCC4 cells = experiment: Cell-cycle analysis by flow cytometry, RCC cells; assay type: cell-based
Description: To confirm the cytotoxic effect observed in the glioblastoma cell lines, the inventors assessed ISP I's effect on renal cell carcinoma (RCC) cell lines (ACHN, UM-RC-2, RCC4 and 786-0). Cell viability was assessed similarly via CKK8 analysis. […] (FIG. 4C, D).
as §1

POL1 occupancy on rDNA = experiment: Chromatin immunoprecipitation (CHIP) assay; assay type: cell-based; details: LN229 cells
Description: SELH is localized in the nucleolus, which is a sensor of oxidative stress. Yang et al., Nature communications 7: 13599 (2016); Novoselov et al., J. Biol. Chem. 282: 11960 (2007). […] JNK2 activation by oxidative stress inactivated RNA polymerase I (POL1) transcription factor TIF1A in the nucleoli to down-regulate rRNA synthesis. Mayer et al., Genes Dev. 19: 933 (2005). To investigate whether the ribosomal biogenesis was disrupted by ISP I, pre-rRNA transcription was evaluated using real-time RT-PCR analysis in LN229 cells. […] To examine the mechanisms by which ISP I disrupts POL1 transcription, the inventors initially evaluated JNK2 activity and the overall state of the transcription machinery in ISP I-treated LN229 cells.
ChIP assays were performed using a SimpleCHIP Enzymatic Chromatin IP Kit (Magnetic beads) following the manufacturer's instructions (Cell Signaling Technology; catalog 9003). Cross-linked protein-DNA complexes were precipitated by incubating with rabbit anti-POL1A (CST; 24799s) or rabbit IgG (negative control) overnight and then with magnetic beads for 2 hours. Purified DNA fragments, […], were analyzed quantitatively by real-time PCR with primers against the rDNA promoter and gene body, following the standard-curve method. The standard curves were created by serial dilution of 2% input chromatin DNA. […]

IOMM tumors = experiment: IOMM meningioma subcutaneous xenograft mouse model; assay type: in vivo, Nude mice; details: 35 mg/kg i.p. daily; 18 days after treatment
Description: (§2) For subcutaneous xenografts, NSG mice (6-8 weeks old) from the NCI-Frederick animal facility and Jackson Lab (Bar Harbor, Me. USA) were injected with 5×10^6 to 1×10^7 cells subcutaneously in the flank. One week later, the tumor-bearing mice were randomly assigned to different groups and made the tumor volume baseline equivalent and treated with normal saline or Zenomycin (35 mg/kg) everyday intraperitoneally. Tumors were measured using a caliper, and volume was calculated.

[1] = test system: in vivo cancer parameters; details: animal models; cited from earlier work
[2] = test system: glutathione-dependent peroxidases (SELH enzyme activity); experiment: Glutathione peroxidase activity assay; assay type: cell-based; details: LN229 cells
From the text: Since glutathione peroxidase catalyzes the reduction of reactive oxidative species (ROS), the inventors assessed whether treatment with ISP I increased the generation of ROS in glioblastoma cell lines (LN229 and U251) and RCC cell lines (786-O and RCC4).
Glutathione peroxidase kit (Abcam, Cambridge, Mass. USA) was used to quantitate the activity of all of the glutathione-dependent peroxidases in live cells (2×10^6), which were harvested and homogenized with assay buffer provided in the kit. Then the supernatant was collected and incubated in accordance with the manufacturer's instructions. Absorbance at 340 nm was measured using the microplate reader mentioned above.

786-O tumors = experiment: 786-O subcutaneous xenograft mouse model; assay type: in vivo, NSG mice; details: 35 mg/kg i.p. daily; 18 days after treatment
Description: as §2

COC1C(O)CC(=O)OC(C)CC=CC=CC(OC2CCC(N(C)C)C(C)O2)C(C)CC(CC=O)C1OC1OC(C)C(OC2CC(C)(O)C(OC(=O)CC(C)C)C(C)O2)C(N(C)C)C1O (stereo not drawn) [ISP I, 4″-isolvalerylspiramycin I]
tumor growth / burden (bioluminescence imaging) (LN229-luc tumors; 66 mg/kg body weight i.p. every day): reduced LN229-luc tumor burden compared with the untreated group; also recorded: significantly reduced tumor growth | response in tumor-derived bioluminescence images (LN229-luc tumors; three mice, day 24, 66 mg/kg i.p. daily): complete response | cell distribution in cell-cycle phases (LN229 and U251 cells): G0/G1 arrest; also recorded: dose-dependent increase in the G0/G1 phase and a decrease in the S phase | cell distribution in cell-cycle phases (786-O and RCC4 cells): clear G0/G1 arrest; also recorded: induced cell-cycle arrest in the G0/G1 phase | POL1 recruitment / occupancy on rDNA (CHIP) (POL1 occupancy on rDNA): reduces the occupancy of POL1 on rNDA; also recorded: significantly reduced POL1 recruitment to the promoter coding regions of rDNA | tumor size, weight and burden (IOMM tumors): reduced IOMM tumor burden; also recorded: significantly reduced tumor size and weight | in vivo cancer parameters such as tumor growth rate and relative tumor volume [1]: reduction | glutathione peroxidase activity [2]: decrease, in a dose-dependent manner, of SELH enzyme activity; also recorded: significantly reduced glutathione peroxidase activity | tumor size, weight and burden (786-O tumors): reduced 786-O tumor burden; also recorded: significantly reduced tumor size and weight
